Assays:
[1] = test system: frozen whole blood stimulated with LPS; assay: Modulation of LPS-stimulated IL-1 release in frozen whole blood; type: cell-based, human; settings: depending on amount of substance administered; FIGS. 2 and 3
Procedure: Citrated blood from healthy donors was mixed with 10% dimethylsulfoxide (Merck, Darmstadt) immediately after it was drawn. Aliquots of 100 microliters were distributed in 2 milliliter reaction vessels (Eppendorf, Hamburg) and transferred to a −70° C. cold box in a commercial freezing system (a person, Nalgene). Thawing was done in a thermoshaker (Eppendorf, Hamburg) at 37° C. Immediately after thawing, 900 microliters of RPMI 1640 (Gibco, Eggenstein), warmed to 37° C., was added. Then the test substances, such as dilutions of a pyrogen, in this case, lipopolysaccharide of Salmonella abortus equi (Sigma, Deisenhofen) were added. After a four-hour incubation at 37° C., for example, in an incubator (Heraeus, Fellbach) with 5% carbon dioxide the incubated samples are shaken and centrifuged. Endogenous pyrogens, IL-1β in this case, are determined in the cell-free supernatant, after freezing, if desired. […] IL-1β was determined by ELISA (enzyme-linked immunosorbent assay) from antibodies from the company Pharmingen (Hamburg).

[2] = test system: cryopreserved blood from four healthy donors; assay: IL-1β release in thawed cryopreserved whole blood on contact with pyrogen (ELISA); type: cell-based, human; settings: thawed deep-frozen citrated blood with 10% dimethylsulfoxide, diluted with RPMI 1640, four-hour incubation at 37° C., FIG. 1
Procedure: Citrated blood from healthy donors was mixed with 10% dimethylsulfoxide (Merck, Darmstadt) immediately after it was drawn. Aliquots of 100 microliters were distributed in 2 milliliter reaction vessels (Eppendorf, Hamburg) and transferred to a −70° C. cold box in a commercial freezing system (Mr. Freezy, Nalgene). Thawing was done in a thermoshaker (Eppendorf, Hamburg) at 37° C. Immediately after thawing, 900 microliters of RPMI 1640 (Gibco, Eggenstein), warmed to 37° C., was added. Then the test substances, such as dilutions of a pyrogen, in this case, lipopolysaccharide of Salmonella abortus equi (Sigma, Deisenhofen) were added. After a four-hour incubation at 37° C., for example, in an incubator (Heraeus, Fellbach) with 5% carbon dioxide the incubated samples are shaken and centrifuged. Endogenous pyrogens, IL-1β in this case, are determined in the cell-free supernatant, after freezing, if desired. […] IL-1β was determined by ELISA (enzyme-linked immunosorbent assay) from antibodies from the company Pharmingen (Hamburg).

| Molecule | release of IL-1 in frozen whole blood stimulated with LPS [1] | release of endogenous pyrogens (IL-1β) [2] |
| --- | --- | --- |
| Cn1cnc([N+](=O)[O-])c1Sc1ncnc2[nH]cnc12 [azathioprin] | dependence of release of IL-1 |  |
| lipopolysaccharide of Salmonella abortus equi |  | release of endogenous pyrogens in the presence of minimal amounts of pyrogens |

Source: patent US9784753B2, “Biological system to test in vitro if a substance is immune reactive” (priority 1996, dated 2017)
